Structures are written as SMILES.

For orientation: zone of inhibition means the extent of the growth-free halo in a diffusion test.

Assay type in all cases: cell-based
In one assay the test system is Escherichia coli. In words: Disc diffusion assay against Escherichia coli. The note with it: Escherichia coli; read-out: Net zone of inhibition. The protocol: (§1) • a) The minimum inhibitory concentration (MIC) of any antibiotic or drug molecule is determined against Escherichia coli (ATCC 10536), Bacillus subtilis (ATCC 6015) and Mycobacterium smegmatis (ATCC 14468) and Candida albicans (ATCC 10231) in broth and disc diffusion assays. • b) The antibiotics or antifungal agents at concentrations 1/10, ⅛, ⅙, ¼, ⅓, ½ and equal to MIC are added alone and in combination with the test compound at varying concentrations in broth assays to evaluate the comparative level of inhibition and similarly at varying concentrations in disc diffusion assay. • c) The combinations showing enhancement in terms of higher activity than antibiotic alone for the inhibition of bacterial growth (large inhibition zone in disc diffusion and higher killing at lower concentration in broth assay) are picked up for future testing. • d) In broth assays the activity is quantified by counting number of viable cells in a given treatment and converted in fold enhancement by the combination treatment compared to antibiotic/drug alone in the killing percentage of cells. • e) The pretreatment assay is followed to determine whether the bioenhancer which may be either an extract obtained from the plant Glycyrrhiza glabra, glycyrrhizin or glycyrrhizic acid, is required along with antibiotic to enhance its activity or even its withdrawal after treatment or prior to antibiotic treatment would benefit. […] Assay for Bio-Enhancement of Anti-Cancer Agents • a) MCF-7 (Breast cancer cell line is inoculated at a density of about 0.1×10^6 cells in MEM medium in the wells of 24 well plate. • b) The used up medium in these cultures is replaced with fresh medium after 18 hours in each well. • c) The test compound (s) is added at desired concentrations in different wells just after the medium replacement. • d) Observations are recorded on the cell count after 36 hours for which the following steps are required. • i. […] The number of viable cells is counted in 5 big squares and the reading is taken from 5 microscopic fields to determine the average. • viii. […]

The next assay relates to Mycobacterium smegmatis. In words: Disc diffusion assay against Mycobacterium smegmatis. The note with it: Mycolicibacterium smegmatis; read-out: Net zone of inhibition. The protocol: as §1
A general note: A growth-free zone around the sample is the usual read-out of agar diffusion tests.

In assay [1] the test system is Escherichia coli (ATCC 10536). Description: Broth assay for bio-enhancement of antibiotics: viable cell count, Escherichia coli. The conditions noted are these: Table 1; for *Folds enhancement in antibiotic activity (a/b): glycyrrhizin 1 μg/ml.
Assay [2] relates to Bacillus subtilis (ATCC 6015). Description: Broth assay for bio-enhancement of antibiotics: viable cell count, Bacillus subtilis. How it is done: (§2) In the next step of elucidation of the enhancer action the applicants experimented with the killing activities of different antibiotics against the bacteria singly and in combination with the test compound glycyrrhizin following the method described above. These experiments are to be considered with assay for bioenhancement of the compounds glycyrrhizin/glycyrrhizic acid and licorice, as described earlier. […] In all the experiments the glycyrrhizin concentration was kept at 1 μg/ml, unless it is specifically mentioned.

The test system of assay [3] is Mycobacterium smegmatis (ATCC 14468). Description: Broth assay for bio-enhancement of antibiotics: viable cell count, Mycobacterium smegmatis. The note with it: Table 3; for *Folds enhancement in antibiotic activity (a/b): glycyrrhizin 1 μg/ml. How it is done:
(§3) For this, the cells are treated with the bioenhancer/compound for 4 to 8 hours and then washed free of it by centrifugation and washing in sterile water. […] 2. Assay for Bio-Enhancement of Anti-Cancer Agents • a) MCF-7 (Breast cancer cell line is inoculated at a density of about 0.1×10^6 cells in MEM medium in the wells of 24 well plate. • b) The used up medium in these cultures is replaced with fresh medium after 18 hours in each well. • c) The test compound (s) is added at desired concentrations in different wells just after the medium replacement. • d) Observations are recorded on the cell count after 36 hours for which the following steps are required. • i. The medium is removed from the wells. • ii. The wells are rinsed with 1 ml PBS (Phosphate buffer saline). • iii. To each well 500 μl of freshly prepared trypsin solution (0.1% in PBS) is added. • iv. Trypsin solution is removed after 30 seconds and the plate is gently tapped till the cells are released from the plate surface. • v. Fresh 1 ml of MEM growth medium is added and agitated with a pipette to obtain a cell suspension. • vi. 10 μl of cell suspension is taken on the haemocytometer and a cover glass is placed over the counting chamber. • vii. The number of viable cells is counted in 5 big squares and the reading is taken from 5 microscopic fields to determine the average. • viii. The cell count (titre per ml) in the original sample is then calculated as average count×10^3. Composition of Minimum Essential Medium (MEM): 100 ml
as §2

Assay [4] concerns Candida albicans (ATCC 10231). In words: Disc diffusion assay, antifungal agent against Candida albicans. The protocol:
as §1

The subject of assay [5] is MCF-7 (Breast cancer cell line). In words: Assay for bio-enhancement of anti-cancer agents: viable cell count after 36 hours. The note with it: for Final titre of viable cells upon treatment with taxol-glycyrrhizin combination / Final titre of viable cells upon treatment with taxol alone: initial titre 0.1 × 10^6, 36 hours. How it is done:
as §3

Setting [6] is: antibiotic 8 μg/ml + glycyrrhizin 1 μg/ml.
[7] abbreviates: antibiotic 4 μg/ml + glycyrrhizin 1 μg/ml.

On to `CC1(C)[C@@H](O[C@H]2O[C@H](C(=O)O)[C@@H](O)[C@H](O)[C@H]2O[C@@H]2O[C@H](C(=O)O)[C@@H](O)[C@H](O)[C@H]2O)CC[C@]2(C)[C@H]3C(=O)C=C4[C@@H]5C[C@@](C)(C(=O)O)CC[C@]5(C)CC[C@@]4(C)[C@]3(C)CC[C@@H]12` [Glycyrrhizic acid], for which the zone of inhibition at 4 µg/disc in the assay on Escherichia coli and in the assay with Mycobacterium smegmatis was 0 mm in each case.
For `CC1(C)S[C@@H]2[C@H](NC(=O)[C@H](N)c3ccccc3)C(=O)N2[C@H]1C(=O)O` [Ampicillin], the “Survival fraction of viable cells upon treatment with antibiotic alone (a)” value (shortened to “Survival fraction … (a)”) is reported as 0.38 in assay [1] (antibiotic 6 μg/ml) and 0.013 in assay [1] (antibiotic 8 μg/ml). The “Survival fraction of viable cells upon treatment with antibiotic- glycyrrhizin combination (b)” value was 0.03 in assay [1] (antibiotic 6 μg/ml + glycyrrhizin 1 μg/ml) and 0.006 in assay [1] (setting [6]). Moreover, the “*Folds enhancement in antibiotic activity (a/b)” value (shortened to “*Folds enhancement”) is given as 12.6 folds in assay [1] (antibiotic 6 μg/ml) and 2.1 folds in assay [1] (antibiotic 8 μg/ml).
Consider `CN(C)[C@@H]1C(O)=C(C(N)=O)C(=O)[C@@]2(O)C(O)=C3C(=O)c4c(O)cccc4[C@@](C)(O)[C@H]3C[C@@H]12` [Tetracycline], for which the “Survival fraction … (a)” value worked out at 0.10 in assay [2] (Table 2, antibiotic 1 μg/ml); 0.3 in assay [3] (antibiotic 0.5 μg/ml); 0.42 in assay [1] (antibiotic 2 μg/ml); 0.27 in assay [1] (antibiotic 4 μg/ml). Besides, the “Survival fraction of viable cells upon treatment with antibiotic- glycyrrhizin combination (b)” value in assay [2] (Table 2, antibiotic 1 μg/ml + glycyrrhizin 1 μg/ml) stood at 0.02; in assay [3] (antibiotic 0.5 μg/ml + glycyrrhizin 1 μg/ml) it was 0.2; in assay [1] (antibiotic 2 μg/ml + glycyrrhizin 1 μg/ml), 0.22; in assay [1] (setting [7]), 0.03. Further, the “*Folds enhancement” value in assay [2] (Table 2, antibiotic 1 μg/ml, glycyrrhizin 1 μg/ml) was determined as 5.00 folds; in assay [3] (antibiotic 0.5 μg/ml), 1.5 folds; in assay [1] (antibiotic 2 μg/ml), 1.9 folds; in assay [1] (antibiotic 4 μg/ml), 9.0 folds.
On to `Clc1ccccc1C(c1ccccc1)(c1ccccc1)n1ccnc1` [Clotrimazole], for which the zone of inhibition at 4 µg/disc in assay [4] (Candida albicans, ATCC10231, clotrimazole 4 μg/disc alone, glycyrrhizin 0) was determined as 7 mm. In assay [4] (clotrimazole 4 μg/disc + glycyrrhizin 1 μg/disc), the Zone of inhibition turned out to be 11 mm.
In the case of `CCn1cc(C(=O)O)c(=O)c2ccc(C)nc21` [Nalidixic acid], the “Survival fraction … (a)” value in assay [2] (Table 2, antibiotic 6 μg/ml) amounted to 0.50; in assay [2] (Table 2, antibiotic 8 μg/ml), 0.27; in assay [2] (Table 11, antibiotic 6 μg/ml) it was 0.500; in assay [3] (antibiotic 4 μg/ml) it was 0.70; in assay [1] (antibiotic 8 μg/ml), 0.19. Further, the “Survival fraction of viable cells upon treatment with antibiotic- glycyrrhizin combination (b)” value is 0.11 in assay [2] (Table 2, antibiotic 6 μg/ml + glycyrrhizin 1 μg/ml); 0.04 in assay [2] (Table 2, antibiotic 8 μg/ml + glycyrrhizin 1 μg/ml); 0.12 in assay [3] (setting [7]); 0.02 in assay [1] (setting [6]). In addition, the “*Folds enhancement” value in assay [2] (Table 2, antibiotic 6 μg/ml, glycyrrhizin 1 μg/ml) is 4.50 folds; in assay [2] (Table 2, antibiotic 8 μg/ml, glycyrrhizin 1 μg/ml) it was 6.75 folds; in assay [2] (Table 11, antibiotic 6 μg/ml, licorice 25 μg/ml), 4.10 folds; in assay [3] (antibiotic 4 μg/ml), 7.7 folds; in assay [1] (antibiotic 8 μg/ml) it was 9.5 folds. Further, in assay [2] (Table 11, antibiotic 6 μg/ml + licorice 25 μg/ml), the “Survival fraction of viable cells upon treatment with antibiotic glycyrrhizic acid combination (b)” value came to 0.121.
In the case of `CC(=O)O[C@H]1C(=O)[C@@]2(C)[C@H]([C@H](OC(=O)c3ccccc3)[C@]3(O)C[C@H](OC(=O)[C@H](O)[C@@H](NC(=O)c4ccccc4)c4ccccc4)C(C)=C1C3(C)C)[C@]1(OC(C)=O)CO[C@@H]1C[C@@H]2O` [Taxol, Paclitaxel (Taxol)], the “Cancerous cells growth inhibition by Taxol in presence of glycyrrhizin, compared with taxol alone” value in assay [5] (Taxol 0.01 μg/ml + glycyrrhizin 1 μg/ml versus taxol 0.05 μg/ml alone) is “higher than even the treatment with taxol (@ 0.05 μg/ml) alone”. Besides, the “Final titre of viable cells upon treatment with taxol-glycyrrhizin combination” value in assay [5] (taxol 0.01 μg/ml + glycyrrhizin 1 μg/ml) is 0.025 × 10^6 per ml; in assay [5] (taxol 0.02 μg/ml + glycyrrhizin 1 μg/ml), 0.024 × 10^6 per ml; in assay [5] (taxol 0.05 μg/ml + glycyrrhizin 1 μg/ml), 0.021 × 10^6 per ml. The “Final titre of viable cells upon treatment with taxol alone” value was 0.05 × 10^−6 per ml in assay [5] (taxol 0.01 μg/ml), 0.04 × 10^−6 per ml in assay [5] (taxol 0.02 μg/ml) and 0.03 × 10^−6 per ml in assay [5] (taxol 0.05 μg/ml). In assay [5] (taxol with glycyrrhizin 1 μg/ml), the “Enhancement of anticancerous activity (inhibiting growth and multiplication of MCF-7 cells) by glycyrrhizin” value is “at least 5 folds”.

Source of the values: patent publication US6979471B1, “Composition comprising pharmaceutical/nutraceutical agent and a bio-enhancer obtained from Glycyrrhiza glabra” (Council of Scientific and Industrial Research, priority 2000, dated 2005).
